# System: PANC-1 cells
# Test: PANC-1 cell apoptosis (AnnexinV-FiTC/PI, flow cytometry)
# Assay type: cell-based
# Conditions: even at a concentration of 5 μM
# Protocol: Analysis of Cell Apoptosis. For PANC-1 cell apoptosis measurements, 5×10^6 cells were seeded in 12 well-plates. Cells were incubated for 24 hours with a test compound (GSK-7975-A, SKF-93365 and 6αa) at two different concentrations (5 and 20 μM) compared to DMSO and untreated cells at 37° C. After washing, cells were taken off plates using an enzyme-free solution. Cells were centrifuged for 5 minutes at 1500 rpm and suspended in […] of PBS containing 1 μL of AnnexinV-FiTC and 1 μL of propidium iodide (PI) for 15 minutes at room temperature in the dark. Evaluation of Annexin and PI staining was performed using a flow cytometer (Navios, Beckman Counter) to evaluate cell apoptosis and necrosis.
structure (smiles),measurement,value
"COc1ccc(CCOc2ccc(CCn3cnc4ccccc43)cc2)cc1 [6αa DAD 3-473, 1-[4-(4-Methoxyphenethoxy)phenethyl]-1H-benzo[d]imidazole]",PANC-1 cell death by apoptosis,induces PANC-1 cells by apoptosis
